Results published in patent US7687603B2, “Guanidinium delivery carriers” (priority 2005, dated 2010).
Numbered stars: 1 amine (or outer) side, 2 acyl side, 3 side chain; on linkers, the order of the positions; unused ones are H or OH. Side chains are listed from the residue outwards. Peptide text beside a SMILES is read from it. * marks the point of attachment. Doxorubicin(3'-N) = COc1cccc2c1C(=O)c1c(O)c3c(c(O)c1C2=O)C[C@@](O)(C(=O)CO)C[C@@H]3O[C@H]1C[C@H](N*)[C@H](O)[C@H](C)O1; Suc = O=C(CCC(=O)[*:2])[*:1]

Experiments:
Hela 705 cells = experiment: Transduction assay (in vitro), fluorescence microscope; format: cell-based; settings: 30 min at 37° C., Streptavidin-FITC, FIG. 4
Experimental: The transduction efficiency of compound 9 from Example 1 and compound 11 from Example 2 were analyzed. Hela 705 cells were seeded at 1.5×10^4/well in 96-well plate and cultured overnight (about 70% confluenced). The media was discarded and the cells rinsed with PBS. Biotin-labeled test compounds (dissolved in PBS, pH: 7.4) were applied to culture(s) and incubated for 30 min at 37° C. The media was carefully discarded and the cells rinsed with PBS. The cells were fixed in freshly prepared 4% paraformaldehyde for 10 min at 4° C. The cells were rinsed and incubated with a blocking reagent (10% BSA containing 0.5% Triton X-100 in PBS) for 30 min at 37° C. The cells were again rinsed with PBS and incubated with Streptavidin-FITC for 30 min at room temperature. The cells were then rinsed with PBS and observed under fluorescence microscope.
The transduction activity of the disulfide linked HA compounds 13 and 14 from Example 4 were tested on Hela 705 cells following the procedure as mentioned above. FITC conjugated anti-HA antibody was applied for visualization.

Mouse skin tissue = experiment: In vivo transdermal delivery assay; settings: nude mice skin, 100 μl of 1 mM in PBS, 30 min, FIG. 9
Experimental: Compounds 9 and 11 from Examples 1 and 2 were tested in vivo. In vivo evaluation was conducted with a transdermal delivery assay on nude mice (NU/NU ♀). Nude mice (female, 6 weeks old, from Charles River) were anesthetized with 50 μl cocktail of Ketaset 25 mg/ml, Xylazine 5 mg/ml (i.m.). The skin was wiped with saline and a 100 μl solution of the test compounds (1 mM in PBS) was applied. A plastic ring was used to isolate the test solution and vaseline was rubbed outside of the ring. After 30 min incubation, the animal was sacrificed under deep anesthesia and the skin was removed. Mouse skin tissue was immediately embedded in OTC medium, cut into 5 μm on a cryostat and collected on slides, and stored at −70° C. The tissue was fixed in freshly prepared 4% paraformaldehyde in PBS for 10 min at 4° C. The tissue was then rinsed in PBS 2×5 min and incubated with 10% BSA containing 0.5% Triton X-100 in PBS for 30 min at 37° C. The samples were incubated with Streptavidin-FITC (diluted in 1% BSA containing 0.05% Triton X-100 in PBS) overnight at 4° C. […] The samples were rinsed twice in PBS 2×5 min and tap water and mounted with anti-fading mounting medium and observed under fluorescence microscope or confocal imaging analysis.

PC-3 cells = experiment: Cytotoxicity assay, live/dead cell staining; format: cell-based
Experimental: Prostate cancer cell lines (PC-3 cells) were maintained in 12-F medium containing 10% fetal bovine serum, 100 units/mL penicillin and 100 μg/mL streptomycin at 37° C. under 5% CO2 and 100% humid condition. To avoid confluency due to the short doubling time (˜20 hrs), the cells were split every 3-4 days.
The PC-3 cells were plated in 6-well tissue culture plates (5×10^5 cells/well) and incubated overnight in 12-F medium with 10% FBS. For each well, an aliquot of 200 μl Doxorubicin-protein transduction domain (DOX-PTD) solution at same mole concentration (0.2 mg/per well) was added. The cells were then incubated at 37° C. in 5% CO2 for 2 hrs.
After incubation, the live and dead cells were counted using cell staining analysis according to the protocol provided by the manufacturer. The dead cells stain red while the live cells stain green. The green and red fluorescent signals from the cells were observed under a fluorescent microscope (Olympus, filter 570 nm-605). The percentage of live cells in the cultures was determined from counts of three fields.

[1] = system: xenografs of human PC-3 prostate cancer; experiment: DOX-PTD anti-tumor treatment in vivo study, tumor size; parameters: species or system nu/nu athymic mice; settings: intra-tumor administration, Dosedox=0.2 mg/kg, FIGS. 14 and 15
Experimental: (§1) Male nu/nu athymic mice (6-7 weeks old; 22-25 g; available from Charles River Laboratories) were inoculated subcutaneously on the right flank with 1.1×10^6 Hela and PC-3 cells to obtain xenografs of human PC-3 prostate cancer.
(§2) Approximately 4 days after inoculation, the four groups of five mice were administered a solution containing saline, doxorubicin, PTD, or DOX-PTD (e.g., 0.103×10^−4 mol) via intra-tumor injection or intravenously. The solution was administered once a week until the total volume administered equaled ˜50 μL/mouse. Size measurements of the tumor and the body weight of the mice were taken every other day. A saline solution was used as a control.

[2] = Body weight changes after intra-tumor administration; format: in vivo, nu/nu athymic mice; settings: 21 days after intra-tumor administration
Experimental: as §1, §2

mammalian cells = experiment: MTT cytotoxicity study; format: cell-based
Experimental: (§3) Cytotoxicity of PTD carriers were evaluated in mammalian cells using 3-[4,5 dimethylthiazol-2-yl]-2,5-diphenyltetrazolium bromide (MTT). After inducing cytotoxicity (˜4 hrs) by routine methods, 10 μl of MTT solution (5.0 mg/ml in PBS, Sigma) was added to each well, and incubated at 37° C. for 3 hrs. The medium was then removed and 200 μl dimethyl sulfoxide (DMSO) was added into each well to dissolve the formazan crystals produced by living cells. The absorbance of the solution was measured at 570 nm. Cell viabilities were calculated using the equation: Viability (%)={Abs570 (sample)/Abs570 control}. A control reaction was run under the same conditions except for the addition of Dox-PTD.

MTT cytotoxicity study = format: cell-based; settings: mammalian cells, FIG. 13, read-out: cells survived (viability)
Experimental: as §3

B16F0 cells [3] = experiment: IC50% study; format: cell-based; settings: 96 hours
B16F0 cells [4] = experiment: IC50% study; format: cell-based
Experimental: B16F0 cells (obtained from American Type Culture Collection, ATCC) were split into 96 well plates and incubated at 37° C. under 5% CO2. After 24 hours, BMPC-Pt was added to each well. The fluorescence of each well was measured using two wavelength filters (450 nm and 528 nm) before and several times after BMPC-Pt was added (24, 48, and 72 hours). Using measurements, the fluorescence intensity net increase ratio was calculated and the results are summarized in Table 3 and shown in FIGS. 19 and 20.

| Compound | body weight difference between groups [2] | IC50 (B16F0 cells [3]) [µM] | IC50 (B16F0 cells [4]; 24 hours) [µM] | IC50 (B16F0 cells [4]; 48 hours) [µM] | IC50 (B16F0 cells [4]; 72 hours) [µM] | other results |
| --- | --- | --- | --- | --- | --- | --- |
| N=C(N)NCCCC(N)C(=O)NC(CCCNC(=N)N)C(=O)NC(CCCNC(=N)N)C(=O)NCCCCC(NC(=O)C(CCCNC(=N)N)NC(=O)C(CCCNC(=N)N)NC(=O)C(N)CCCNC(=N)N)C(=O)NCCCCC(NC(=O)C(CCCNC(=N)N)NC(=O)C(CCCNC(=N)N)NC(=O)CCCC[C@@H]1SC[C@@H]2NC(=O)N[C@@H]21)C(N)=O (some centres unmarked) [compound 11] |  |  |  |  |  | transduction efficiency compared to vehicle (PBS) (Hela 705 cells): dramatic transduction efficiency; transdermal delivery efficiency compared to vehicle (PBS) (Mouse skin tissue): dramatic transdermal delivery efficiency |
| COc1cccc2c1C(=O)c1c(O)c3c(c(O)c1C2=O)C[C@@](O)(C(=O)CO)C[C@@H]3O[C@H]1C[C@H](NC(=O)CCC(=O)N[C@@H](CCCNC(=N)N)C(=O)N[C@@H](CCCNC(=N)N)C(=O)NCCCC[C@H](NC(=O)[C@H](CCCNC(=N)N)NC(=O)[C@H](CCCNC(=N)N)NC(C)=O)C(=O)N[C@@H](CCCNC(=N)N)C(=O)N[C@@H](CCCNC(=N)N)C(=O)N[C@@H](CCCNC(=N)N)C(=O)N[C@@H](CCCNC(=N)N)C(N)=O)[C@H](O)[C@H](C)O1 [DOX-PTD] (Ac-RRK([Arg-Arg-Suc-Doxorubicin(3'-N)])RRRR-NH2) | no significant difference |  |  |  |  | number of live cells (PC-3 cells; 0.2 mg/per well, 2 hrs, FIGS. 11 and 12): less than with Dox alone; penetration into the PC-3 cells (PC-3 cells; inferred from live cell counts): greater penetration into the PC-3 cells compared to Dox alone; tumor size [1]: increased in size less than the tumor injected with Dox alone; cytotoxicity (mammalian cells): extremely high; viability (MTT cytotoxicity study): < 40% |
| COc1cccc2c1C(=O)c1c(O)c3c(c(O)c1C2=O)C[C@@](O)(C(=O)CO)C[C@@H]3O[C@H]1C[C@H](N)[C@H](O)[C@H](C)O1 [DOX, doxorubicin, reference compound] | no significant difference |  |  |  |  |  |
| CC(=O)N[C@@H](CCCNC(=N)N)C(=O)N[C@@H](CCCNC(=N)N)C(=O)N[C@@H](CCCCNC(=O)[C@H](CCCNC(=N)N)NC(=O)[C@H](CCCNC(=N)N)NC(=O)CCC(=O)NC1CC(=O)[O][Pt]2([NH]C3CCCCC3[NH]2)[O]C1=O)C(=O)N[C@@H](CCCNC(=N)N)C(=O)N[C@@H](CCCNC(=N)N)C(=O)N[C@@H](CCCNC(=N)N)C(=O)N[C@@H](CCCNC(=N)N)C(N)=O (some centres unmarked) [BMPC-Pt] |  | 12.5 | 128 | 51.6 | 22.3 |  |
| N.N.O=C([O-])C1(C(=O)[O-])CCC1.[Pt+2] [Carboplatin, reference compound] |  | 4.5 | 110 | 36.5 | 24.5 |  |
